Holding throughout (format): functional, cell-based
One assay deals with A549. Put plainly: Cytotoxicity against human A549 cells.
The next assay relates to SK-MEL-28. Put plainly: Cytotoxicity against human SK-MEL-28 cells.
The next assay relates to P388. The assay is described as follows: Cytotoxicity against mouse P388 cells.
For another assay, the system named is HT-29. Put plainly: Cytotoxicity against human HT-29 cells.

The structures appear in SMILES notation. Values after ≈ are worked out from the molar mass of the structure shown.

One may read the IC50 as the concentration needed to halve the response being measured. Lower therefore signals greater potency. Take `C=C/C(C)=C/C=C/C(C)CC(=O)CC(C)C` (stereo not given): the IC50 with A549 is 5 µg/mL (≈ 22.7 µM); in the assay with SK-MEL-28, 5 µg/mL (≈ 22.7 µM); in the assay with P388 it was 2.5 µg/mL (≈ 11.3 µM); in the assay on HT-29, 5 µg/mL (≈ 22.7 µM).

`C=C/C(C)=C\C=C\C(C)CC(=O)CC(C)C` (stereo not given): the 50% inhibitory concentration (IC50) in the assay on A549, with SK-MEL-28, with P388 and in the assay with HT-29 was 2.5 µg/mL (≈ 11.3 µM) each time.

For `C=C/C(C)=C/CC(OC(C)=O)C(=C)CCC=C(C)C` (stereo not given), the IC50 with A549 stood at 5 µg/mL (≈ 19.1 µM); in the assay with SK-MEL-28, 5 µg/mL (≈ 19.1 µM); with P388, 2.5 µg/mL (≈ 9.53 µM); with HT-29, 5 µg/mL (≈ 19.1 µM).

Regarding `CC(C)=C/C=C\C(C)/C=C/C=C(\C)C=O` (stereo not given), the half-inhibitory concentration (IC50) in the assay on A549, in the assay with SK-MEL-28, in the assay on P388 and in the assay on HT-29 was above 10 µg/mL each time.

Turning to `CC(C)=CCCC(C)/C=C/C=C(\C)C=O` (stereo not given), the IC50 in the assay on A549 was determined as 2.5 µg/mL (≈ 12.1 µM); in the assay on SK-MEL-28, 2.5 µg/mL (≈ 12.1 µM); in the assay on P388 it was 0.5 µg/mL (≈ 2.42 µM); in the assay on HT-29, 2.5 µg/mL (≈ 12.1 µM).
